Measurements reported in US8916605B2, “Compounds and methods for treating cancer and viral infections” (priority 2009, dated 2014).

Legend:
[1] = test system: all three transformed neuronal cell lines (IMR32, NG108, NSC34); test: MTT (CIMA) cell proliferation assay (Example 4); details: 72 h post-treatment; 0.5-250 μg/ml
Method: (§1) Compound preparation: Stock solutions of test compounds were prepared in dimethylsulfoxide (DMSO) at 250 mg/ml. Working concentrations of 10 mg/ml were subsequently prepared from the stock solution and stored in 50 μl aliquots at −20° C. until used.
Cells and cell culture: Three classes of cells were evaluated: 1) neuroblastoma cells, 2) neuroglioma cells, and 3) non-transformed human neurons (see below). All cells were maintained in appropriate culture medium supplemented with 10% fetal calf serum (FCS) and antibiotics in a humidified, 5% CO2 environment. Cells were passaged as required by trypsinization.
Assay conditions: The effects of the test compounds were assessed following acute and chronic exposure conditions. […] Each compound was evaluated over a broad range of concentrations (0, 0.5, 1, 5, 10, 50, 100 and 250 μg/ml) with cells treated with equivalent concentrations of vehicle (DMSO) serving as controls.
Cell proliferation assay: Cell proliferation was assessed using a standard colorimetric indicator of metabolic activity (CIMA) assay. In this assay, the reduction of yellow tetrazolium salt (MTT) to purple formazan by mitochondrial reductase enzymes in viable cells was evaluated as a measure of metabolic activity to determine the extent of cell proliferation within a culture. […]

[2] = test system: Influenza B (strain B/Lee/40); test: Anti-influenza cytopathic effect (CPE) assay in MDCK cells, prophylactic regimen (Example 7); assay type: cell-based; design: key to CPE score: 1: Complete monolayer with few gaps or dead cells; 2: Some gaps in the monolayer; dead cells more evident; 3: Increasing number of gaps in the monolayer concurrent with dead cells; 4: Gaps widely distributed throughout the monolayer and of increasing size; 5: Large holes forming as smaller gaps merge; copious dead cells evident; 6: Monolayer integrity lost. Small islands of attached cells amid predominantly dead cells; details: for CPE score: Influenza B, MDCK, virus + DMSO control 4
[3] = test system: U373 astroglioma cells; test: MTT (CIMA) cell proliferation assay, acute and chronic exposure (Example 3); details: acute (24 h) and chronic (72 h) treatment, 0.5-250 μg/ml
Method: as §1
(§2) Cells and cell culture: Proof-of-principle studies in this example focused on two human brain cancer cell lines, namely SH-SY5Y neuroblastoma cells and U373 astroglioma cells. […] Both cells were maintained in (50:50) F12:DMEM medium supplemented with 10% fetal calf serum (FCS) and antibiotics in a humidified, 5% CO2 environment. Cells were passaged as required by trypsinization.
(§3) Assays conditions: The effects of the test compounds were assessed following acute and chronic exposure conditions. […] The test compounds were evaluated over a broad range of concentrations (0, 0.5, 1, 5, 10, 50, 100 and 250 μg/ml) with cells treated with equivalent concentrations of vehicle (DMSO) serving as controls.
(§4) Cell proliferation assay: Cell proliferation was assessed using a standard colorimetric indicator of metabolic activity (CIMA) assay. In this assay, the reduction of yellow tetrazolium salt (MTT) to purple formazan by mitochondrial reductase enzymes in viable cells was evaluated as a measure of metabolic activity to determine the extent of cell proliferation within a culture. The resulting colour change that conferred a change in absorbance was quantified using a spectrophotometer (λ=500-600). Samples were diluted as required to ensure that values obtained with the MTT assay fell within the linear range of the protocol. Qualitative microscopic evaluation of treated cultures was used to determine if overt cytotoxicity was present and to supplement the quantitative CIMA data.

[4] = test system: MDCK cells; test: Cytotoxicity assay (MTT/CIMA) in MDCK cells (Example 7)
[5] = test system: SH-SY5Y neuroblastoma cells; test: MTT (CIMA) cell proliferation assay, acute and chronic exposure (Example 3)
Method: as §1, §2, §3, §4

[6] = test system: Influenza A (strain A/PR/8/34); test: Anti-influenza cytopathic effect (CPE) assay in MDCK cells, prophylactic regimen (Example 7); assay type: cell-based; design: key to CPE score: 1: Complete monolayer with few gaps or dead cells; 2: Some gaps in the monolayer; dead cells more evident; 3: Increasing number of gaps in the monolayer concurrent with dead cells; 4: Gaps widely distributed throughout the monolayer and of increasing size; 5: Large holes forming as smaller gaps merge; copious dead cells evident; 6: Monolayer integrity lost. Small islands of attached cells amid predominantly dead cells; details: for CPE score: Influenza A, MDCK

## CC(C)(C)OC(=O)N1CCCC1O (centres unmarked) [I(b), tert-butyl 2-hydroxypyrrolidine-1-carboxylate]
[1]
  viability/proliferation: dose-dependent decreases in viability/proliferation
[2]; Influenza B infection
  effect on CPE (summary in words): little impact on CPE
[2]; 24 hpi, 0.5 μg/ml
  CPE score: 3
[2]; 24 hpi, 1.0 μg/ml
  CPE score: 4
[2]; 24 hpi, 5.0 μg/ml
  CPE score: 4
[2]; 24 hpi, 10 μg/ml
  CPE score: 3
[2]; 24 hpi, 25 μg/ml
  CPE score: 4
[2]; 24 hpi, 50 μg/ml
  CPE score: 3
[2]; 24 hpi, 100 μg/ml
  CPE score: 4
[2]; 48 hpi, 0.5 μg/ml
  CPE score: 3
[2]; 48 hpi, 1.0 μg/ml
  CPE score: 4
[2]; 48 hpi, 5.0 μg/ml
  CPE score: 4
[2]; 48 hpi, 10 μg/ml
  CPE score: 4
[2]; 48 hpi, 25 μg/ml
  CPE score: 4
[2]; 48 hpi, 50 μg/ml
  CPE score: 3
[2]; 48 hpi, 100 μg/ml
  CPE score: 3
[3]
  overt cell death / reductions in MTT activity: Neither overt cell death nor significant reductions in MTT activity
[4]; 24 h exposure, 0.5 μg/ml
  Toxicity (MTT), fold changes relative to vehicle controls: 1.02 fold
[4]; 24 h exposure, 1.0 μg/ml
  Toxicity (MTT), fold changes relative to vehicle controls: 1.07 fold
[4]; 24 h exposure, 5.0 μg/ml
  Toxicity (MTT), fold changes relative to vehicle controls: 1.09 fold
[4]; 24 h exposure, 10 μg/ml
  Toxicity (MTT), fold changes relative to vehicle controls: 1.00 fold
[4]; 24 h exposure, 25 μg/ml
  Toxicity (MTT), fold changes relative to vehicle controls: 1.08 fold
[4]; 24 h exposure, 50 μg/ml
  Toxicity (MTT), fold changes relative to vehicle controls: 1.13 fold
[4]; 24 h exposure, 100 μg/ml
  Toxicity (MTT), fold changes relative to vehicle controls: 1.09 fold
[4]; 72 h exposure, 0.5 μg/ml
  Toxicity (MTT), fold changes relative to vehicle controls: 0.99 fold
[4]; 72 h exposure, 1.0 μg/ml
  Toxicity (MTT), fold changes relative to vehicle controls: 1.00 fold
[4]; 72 h exposure, 5.0 μg/ml
  Toxicity (MTT), fold changes relative to vehicle controls: 0.94 fold
[4]; 72 h exposure, 10 μg/ml
  Toxicity (MTT), fold changes relative to vehicle controls: 0.97 fold
[4]; 72 h exposure, 25 μg/ml
  Toxicity (MTT), fold changes relative to vehicle controls: 1.04 fold
[4]; 72 h exposure, 50 μg/ml, decreases exceeding 25% considered toxic
  Toxicity (MTT), fold changes relative to vehicle controls: 0.99 fold
[4]; 72 h exposure, 100 μg/ml, decreases exceeding 25% considered toxic
  Toxicity (MTT), fold changes relative to vehicle controls: 0.89 fold
[4]; higher concentrations (≧25 μg/ml)
  cytotoxicity (summary in words): did not evidence cytotoxicity
[5]; SH-SY5Y, acute treatment (24 h), 0.25 mg/ml
  decrease in MTT activity: approximately 30%
[5]; SH-SY5Y, acute treatment (24 h), other concentrations evaluated (below 0.25 mg/ml)
  change in MTT activity: No significant change in MTT activity
[5]; SH-SY5Y, chronic treatment (72 h), 50 μg/ml
  decrease in MTT activity: 25%
[5]; SH-SY5Y, chronic treatment (72 h), 100 μg/ml
  decrease in MTT activity: 25%
[5]; SH-SY5Y, chronic treatment (72 h), 250 μg/ml
  decrease in MTT activity: 47%
[5]; select cell types, chronic conditions (72 h)
  LD50: ~0.25 mg/mL
[6]; 0.5 μg/ml, virus + DMSO control 3
  CPE score: 1
[6]; 0.5 μg/ml, virus + DMSO control 4
  CPE score: 2
[6]; 1.0 μg/ml, virus + DMSO control 3
  CPE score: 1
[6]; 1.0 μg/ml, virus + DMSO control 4
  CPE score: 2
[6]; 5.0 μg/ml, virus + DMSO control 3
  CPE score: 1
[6]; 5.0 μg/ml, virus + DMSO control 4
  CPE score: 3
[6]; 10 μg/ml, virus + DMSO control 3
  CPE score: 3
[6]; 10 μg/ml, virus + DMSO control 4
  CPE score: 4
[6]; 25 μg/ml, virus + DMSO control 3
  CPE score: 3
[6]; 25 μg/ml, virus + DMSO control 4
  CPE score: 4
[6]; 50 μg/ml, virus + DMSO control 3
  CPE score: 3
[6]; 50 μg/ml, virus + DMSO control 4
  CPE score: 4
[6]; 100 μg/ml, virus + DMSO control 3
  CPE score: 3
[6]; 100 μg/ml, virus + DMSO control 4
  CPE score: 4
[6]; comparatively lower concentrations
  effect on CPE (summary in words): lower concentrations more greatly reduced CPE
